How the values were obtained:
Assay in all cases: relative viability (nuclei count vs DMSO), 5 days (fraction); higher = more cells survive
GSK126 + Linsitinib = compound: CC[C@H](C)N1C=C(C2=C(C=C(C=C21)C3=CN=C(C=C3)N4CCNCC4)C(=O)NCC5=C(C=C(NC5=O)C)C)C [GSK126] + C[C@]1(O)C[C@@H](c2nc(-c3ccc4ccc(-c5ccccc5)nc4c3)c3c(N)nccn32)C1 [Linsitinib] (partner 1 µM)
Outline: (§1)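 Lung cancer cell lines in 1536-well plates were dosed by pin tool the day after seeding, either with one drug alone or with a fixed anchor-drug dose plus five library-drug doses (not always all listed) in √10 steps. After 5 days, cells were fixed and their nuclei stained in one step (final 0.05% Triton X-100, 1% formaldehyde, 1 ug/ml Hoechst), then counted on 4× images. Relative viability is the nuclei count in treated wells divided by that in vehicle wells. Values are medians of duplicate plates.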

MLN4924 + Luminespib = compound: NS(=O)(=O)OC[C@@H]1C[C@@H](n2ccc3c(N[C@H]4CCc5ccccc54)ncnc32)C[C@@H]1O [MLN4924] + CCNC(=O)c1noc(-c2cc(C(C)C)c(O)cc2O)c1-c1ccc(CN2CCOCC2)cc1 [Luminespib] (partner 0.01 µM)
Outline: as §1

MLN4924 + OSI-027 = compound: NS(=O)(=O)OC[C@@H]1C[C@@H](n2ccc3c(N[C@H]4CCc5ccccc54)ncnc32)C[C@@H]1O [MLN4924] + COc1cccc2cc(-c3nc([C@H]4CC[C@H](C(=O)O)CC4)n4ncnc(N)c34)[nH]c12 [OSI-027] (partner 0.5 µM)
Outline: as §1

MLN4924 + Pemetrexed = compound: NS(=O)(=O)OC[C@@H]1C[C@@H](n2ccc3c(N[C@H]4CCc5ccccc54)ncnc32)C[C@@H]1O [MLN4924] + Nc1nc2[nH]cc(CCc3ccc(C(=O)N[C@@H](CCC(=O)O)C(=O)O)cc3)c2c(=O)[nH]1 [Pemetrexed] (partner 0.2 µM)
Outline: as §1

| Cell Line | relative viability (GSK126 + Linsitinib; first compound 0.08 µM) | relative viability (GSK126 + Linsitinib; first compound 0.253 µM) | relative viability (GSK126 + Linsitinib; first compound 0.8 µM) | relative viability (GSK126 + Linsitinib; first compound 2.53 µM) | relative viability (GSK126 + Linsitinib; first compound 8 µM) | relative viability (MLN4924 + Luminespib; first compound 0.04 µM) | relative viability (MLN4924 + Luminespib; first compound 0.1265 µM) | relative viability (MLN4924 + Luminespib; first compound 0.4 µM) | relative viability (MLN4924 + Luminespib; first compound 1.265 µM) | relative viability (MLN4924 + Luminespib; first compound 4 µM) | relative viability (MLN4924 + OSI-027; first compound 0.04 µM) | relative viability (MLN4924 + OSI-027; first compound 0.1265 µM) | relative viability (MLN4924 + OSI-027; first compound 0.4 µM) | relative viability (MLN4924 + OSI-027; first compound 1.265 µM) | relative viability (MLN4924 + OSI-027; first compound 4 µM) | relative viability (MLN4924 + Pemetrexed; first compound 0.04 µM) | relative viability (MLN4924 + Pemetrexed; first compound 0.1265 µM) | relative viability (MLN4924 + Pemetrexed; first compound 0.4 µM) | relative viability (MLN4924 + Pemetrexed; first compound 1.265 µM) | relative viability (MLN4924 + Pemetrexed; first compound 4 µM) |
| --- | --- | --- | --- | --- | --- | --- | --- | --- | --- | --- | --- | --- | --- | --- | --- | --- | --- | --- | --- | --- |
| LXF-289 | 1.02 | 1 | 0.995 | 0.915 | 1 | 0.61 | 0.425 | 0.386 | 0.153 | 0.144 | 0.833 | 0.713 | 0.569 | 0.165 | 0.13 | 0.814 | 0.77 | 0.567 | 0.177 | 0.116 |
| NCI-H23 | 0.63 | 0.528 | 0.442 | 0.592 | 0.725 | 0.231 | 0.175 | 0.228 | 0.208 | 0.214 | 0.514 | 0.497 | 0.244 | 0.136 | 0.177 | 0.74 | 0.842 | 0.421 | 0.256 | 0.213 |
| NCI-H322M | 0.953 | 0.949 | 0.884 | 1.01 | 0.937 | 1.25 | 1.11 | 0.989 | 0.488 | 0.311 | 0.622 | 0.588 | 0.339 | 0.272 | 0.329 | 0.719 | 0.776 | 0.549 | 0.3 | 0.422 |
| NCI-H358 | 0.939 | 0.768 | 0.785 | 0.675 | 0.738 | 0.338 | 0.422 | 0.214 | 0.105 | 0.111 | 0.968 | 0.649 | 0.492 | 0.0759 | 0.118 | 0.177 | 0.16 | 0.134 | 0.107 | 0.128 |
| NCI-H441 | 0.684 | 0.583 | 0.599 | 0.578 | 0.651 | 0.36 | 0.387 | 0.276 | 0.208 | 0.245 | 0.596 | 0.613 | 0.258 | 0.139 | 0.193 | 0.248 | 0.222 | 0.234 | 0.139 | 0.187 |
| NCI-H460 | 0.76 | 0.784 | 0.787 | 0.798 | 0.969 | 0.0434 | 0.0335 | 0.0273 | 0.0208 | 0.0178 | 0.739 | 0.781 | 0.893 | 0.0922 | 0.0324 | 0.0658 | 0.0623 | 0.0708 | 0.059 | 0.0457 |
| NCI-H520 | 1.12 | 1.03 | 0.915 | 1.07 | 1.11 | 0.25 | 0.2 | 0.227 | 0.213 | 0.205 | 0.294 | 0.295 | 0.363 | 0.202 | 0.191 | 0.489 | 0.368 | 0.271 | 0.193 | 0.172 |
| NCI-H596 | 1.02 | 0.99 | 1.03 | 1.16 | 1.15 | 0.942 | 0.933 | – | 0.768 | 0.767 | 0.669 | 0.87 | – | 0.765 | 0.596 | 0.49 | 0.511 | 0.405 | 0.496 | 0.437 |
| NCI-H647 | 1.47 | 1.28 | 1.17 | 1.07 | 1.08 | 0.193 | 0.157 | 0.127 | 0.0558 | 0.0842 | 0.598 | 0.472 | 0.475 | 0.0477 | 0.0384 | 0.156 | 0.119 | 0.0763 | 0.0395 | 0.0465 |
| NCI-H650 | 1.11 | 0.789 | 0.934 | 0.974 | 1.13 | 0.86 | 0.543 | 0.367 | 0.17 | 0.162 | 0.344 | 0.415 | 0.235 | 0.162 | 0.187 | 0.921 | 0.471 | 0.213 | 0.15 | 0.165 |
| NCI-H661 | 0.531 | 0.561 | 0.519 | 0.719 | 0.497 | 0.744 | 0.691 | 0.484 | 0.385 | 0.351 | 0.751 | 0.876 | 0.689 | 0.319 | 0.349 | 0.773 | 0.77 | 0.494 | 0.426 | 0.44 |
| NCI-H838 | 1.12 | 0.979 | 0.952 | 0.906 | 0.866 | 0.23 | 0.279 | 0.173 | 0.12 | 0.125 | 0.364 | 0.241 | 0.224 | 0.154 | 0.166 | 0.225 | 0.2 | 0.188 | 0.173 | 0.164 |
| NCI-H1355 | 0.947 | 0.872 | 0.793 | 0.637 | 0.841 | 0.636 | 0.684 | 0.775 | 0.366 | 0.208 | 0.456 | 0.388 | 0.277 | 0.221 | 0.231 | 1.01 | 1.07 | 0.879 | 0.547 | 0.256 |
| NCI-H1395 | 1.26 | 1.01 | 0.991 | 0.998 | 1.08 | 0.867 | 0.619 | 0.539 | 0.429 | 0.346 | 0.641 | 0.606 | 0.602 | 0.349 | 0.39 | 0.847 | 0.773 | 0.678 | 0.349 | 0.305 |
| NCI-H1437 | 1.07 | 1.07 | 0.954 | 0.983 | 0.938 | 0.783 | 1.05 | 0.811 | 0.626 | 0.226 | 0.845 | 0.914 | 0.828 | 0.305 | 0.174 | 0.314 | 0.275 | 0.28 | 0.208 | 0.177 |
| NCI-H1563 | 1.2 | 1.11 | 1.16 | 1.12 | 1.26 | 0.556 | 0.539 | 0.53 | 0.435 | 0.407 | 0.981 | 1.04 | 0.74 | 0.526 | 0.524 | 1.08 | 1.48 | 0.649 | 0.495 | 0.405 |
| NCI-H1651 | 1.07 | 0.815 | 0.855 | 0.972 | 1.05 | 0.725 | 0.745 | 0.607 | 0.315 | 0.224 | 0.694 | 0.828 | 0.866 | 0.398 | 0.161 | 0.632 | 0.693 | 0.703 | 0.509 | 0.171 |
| NCI-H1666 | 0.857 | 1.01 | 0.898 | 0.768 | 1.08 | 1 | 1.05 | 0.498 | 0.324 | 0.342 | 0.862 | 0.892 | 0.711 | 0.351 | 0.325 | 0.734 | 0.742 | 0.645 | 0.409 | 0.488 |
| NCI-H1734 | 0.871 | 0.896 | 0.814 | 0.846 | 0.946 | 0.202 | 0.189 | 0.187 | 0.122 | 0.137 | 0.498 | 0.832 | 0.304 | 0.124 | 0.142 | 0.497 | 0.514 | 0.252 | 0.128 | 0.125 |
| NCI-H1755 | 1.01 | 1.04 | 1.01 | 0.967 | 1.03 | 0.441 | 0.443 | 0.238 | 0.221 | 0.231 | 0.681 | 0.518 | 0.4 | 0.207 | 0.208 | 0.378 | 0.268 | 0.282 | 0.178 | 0.186 |
| NCI-H1792 | 0.561 | 0.639 | 0.51 | 0.571 | 0.498 | 0.515 | 0.436 | 0.495 | 0.321 | 0.359 | 0.663 | 0.765 | 0.839 | 0.593 | 0.54 | 0.776 | 0.672 | 1.35 | 0.296 | 0.195 |
| NCI-H1793 | 1.04 | 0.777 | 0.748 | 0.982 | 0.82 | 0.162 | 0.125 | 0.182 | 0.297 | 0.148 | 0.293 | 0.26 | 0.303 | 0.243 | 0.261 | 0.892 | 0.698 | 0.914 | 0.433 | 0.303 |
| NCI-H1915 | 1.2 | 1.08 | 1.14 | 1.17 | 1.16 | 0.728 | 0.639 | 0.761 | 0.231 | 0.17 | 0.567 | 0.544 | 0.452 | 0.213 | 0.205 | 0.625 | 0.66 | 0.479 | 0.144 | 0.176 |
| NCI-H1944 | 1.48 | 1.18 | 1.15 | 1.22 | 1.33 | 0.783 | 0.482 | 0.578 | 0.171 | 0.168 | 0.502 | 0.453 | 0.313 | 0.161 | 0.185 | 0.602 | 0.56 | 0.405 | 0.186 | 0.157 |
| NCI-H1975 | 1.02 | 1.01 | 0.983 | 0.96 | 0.987 | 0.322 | 0.556 | 0.36 | 0.382 | 0.252 | 0.704 | 0.934 | 1 | 0.618 | 0.261 | 0.284 | 0.331 | 0.278 | 0.272 | 0.209 |
| NCI-H1993 | 0.827 | 0.713 | 0.728 | 0.752 | 0.734 | 0.482 | 0.458 | 0.441 | 0.406 | 0.47 | 0.549 | 0.523 | 0.532 | 0.488 | 0.52 | 0.592 | 0.471 | 0.421 | 0.441 | 0.382 |

— the supplement of paper PMC10307832
